Reference: patent US20260193244A1 (Protego Biopharma, Inc., priority 2022, published 2026)
Where a name gives a salt, the structure may show the parent alone.

The molecules below were run on IRE1-XBP1s (HEK293 T-REx cells stably expressing the XBP1-RLuc splicing reporter) (assay: IRE1-XBP1s activation Assay (XBP1-RLuc splicing reporter, luminescence relative to thapsigargin, with or without IRE1 inhibitor 4μ8C)). Settings: 18 h, compound 10 μM, luminescence as percentage signal relative to thapsigargin (Tg) (500 nM, 18 h).
Type: cell-based
Description: IRE1-XBP1s activation Assay: HEK293 T-REx cells stably expressing the XBP1-RLuc splicing reporter were treated with an IRE1-XBP1s activator provided herein (10 μM) in the presence or absence of the IRE1 active site inhibitor 4μ8C (32 μM) for 18 h. Luminescence was shown as the percentage signal relative to thapsigargin (Tg) (500 nM, 18 h).

SMILES | activation at 10 µM [%]
Cc1ccc(OCCN(C)C(=O)Cn2cc(NC(=O)[C@H]3CC[C@@H](Oc4ccccc4)CC3)cn2)cc1 [Compound 1, (cis)-N-(1-(2-(methyl(2-(p-tolyloxy)ethyl)amino)-2-oxoethyl)-1H-pyrazol-4-yl)-4-phenoxycyclohexanecarboxamide] | < 30
Cc1ccc(OCCN(C)C(=O)Cn2cc(NC(=O)c3cccc(Oc4ccccc4)c3)cn2)cc1 [Compound 2] | < 30
Cc1ccc(OCCN(C)C(=O)Cn2cc(NC(=O)c3ccc(Oc4ccccc4)cc3)cn2)cc1 [Compound 3] | < 30
O=C(CCOc1ccccc1)Nc1cnn(CC(=O)N2CCCC(Oc3ccc(C(F)(F)F)cc3)C2)c1 (stereo not shown) [Compound 4, N-(1-(2-oxo-2-(3-(4-(trifluoromethyl)phenoxy)piperidin-1-yl)ethyl)-1H-pyrazol-4-yl)-3-phenoxypropanamide hydrochloride] | 30 to 50
Cc1ccc(OCCN(C)C(=O)Cn2cc(NC(=O)[C@H]3CC[C@H](Oc4ccccc4)CC3)cn2)cc1 [Compound 5] | < 30
Cc1ccc(OCCN(C)C(=O)Cn2cc(NC(=O)[C@H]3C[C@@H](c4ccccc4)C3)cn2)cc1 [Compound 6] | ≥ 50
Cc1ccc(OCCN(C)C(=O)Cn2cc(NC(=O)[C@@H]3CC[C@@H](Oc4ccccc4)C3)cn2)cc1 [Compound 8, (1R,3R)—N-(1-(2-(methyl(2-(p-tolyloxy)ethyl)amino)-2-oxoethyl)-1H-pyrazol-4-yl)-3-phenoxycyclopentanecarboxamide hydrochloride] | < 30
Cc1ccc(OC2CCN(C(=O)Cn3cc(NC(=O)CCOc4ccccc4)cn3)CC2)cc1 [Compound 9] | < 30
Cc1ccc(OC2CCCN(C(=O)Cn3cc(NC(=O)CCOc4ccccc4)cn3)C2)cc1 (stereo not shown) [Compound 11] | 30 to 50
Cc1ccc(OCCN(C)C(=O)Cn2cc(NC(=O)[C@@H]3CCC[C@H](Oc4ccccc4)C3)cn2)cc1 [Compound 12] | < 30
Cc1ccc(OCCN(C)C(=O)Cn2cc(NC(=O)[C@@H]3CCC[C@@H](Oc4ccccc4)C3)cn2)cc1 [Compound 13] | < 30
Cc1ccc(OCCN(C)C(=O)Cn2cc(N(C)C(=O)C3CN(Cc4ccccc4)CCO3)cn2)cc1 (stereo not shown) [Compound 14] | < 30
Cc1ccc(OCCN(C)C(=O)Cn2cc(N(C)C(=O)[C@@H]3CCCN(C(=O)c4ccccc4)C3)cn2)cc1 [Compound 15] | < 30
Cc1ccc(OCCN(C)C(=O)Cn2cc(N(C)C(=O)[C@@H]3CCC(=O)N(Cc4ccccc4)C3)cn2)cc1 [Compound 16] | < 30
Cc1ccc(OCCN(C)C(=O)Cn2cc(N(C)C(=O)C3CCC(Oc4ccccc4)CC3)cn2)cc1 (stereo not shown) [Compound 17] | < 30
Cc1ccc(C2CCN(C(=O)Cn3cc(NC(=O)CCOc4ccccc4)cn3)C2)cc1 (stereo not shown) [Compound 18] | < 30
Cc1ccc(OCCN(C)C(=O)Cn2cc(N(C)C(=O)[C@@H]3CCCC[C@@H]3c3ccccc3)cn2)cc1 [Compound 19] | < 30
Cc1ccc(N2CCCN(C(=O)Cn3cc(NC(=O)CCOc4ccccc4)cn3)CC2)cc1 [Compound 23] | < 30
Cc1ccc(Oc2ccc(N(C)C(=O)Cn3cc(NC(=O)CCOc4ccccc4Cl)cn3)cc2)cc1 [Compound 24] | 30 to 50
COc1ccccc1OCCC(=O)Nc1cnn(CC(=O)N(C)c2ccc(Oc3ccc(C)cc3)cc2)c1 [Compound 25] | 30 to 50

SMILES | activation at 10 µM [%]
Cc1ccc(Oc2ccc(N(C)C(=O)Cn3cc(NC(=O)CCOc4cccc(C)c4)cn3)cc2)cc1 [Compound 26] | < 30
Cc1ccc(OCCC(=O)Nc2cnn(CC(=O)N(C)c3ccc(Oc4ccc(C)cc4)cc3)c2)cc1 [Compound 27] | < 30
Cc1ccc(C2CCCN(C(=O)Cn3cc(NC(=O)CCOc4ccccc4)cn3)C2)cc1 (stereo not shown) [Compound 28] | < 30
O=C(CCOc1ccccc1)Nc1cnn(CC(=O)Nc2ccc(-n3cncn3)cc2)c1 [Compound 30] | < 30
O=C(CCOc1ccccc1)Nc1cnn(CC(=O)Nc2ccc(C3CCCCC3)cc2)c1 [Compound 31] | < 30
Cc1ccc(Oc2ccc(N(C)C(=O)Cn3cc(NC(=O)CCOc4ccccc4C)cn3)cc2)cc1 [Compound 32, N-(1-(2-(methyl(4-(p-tolyloxy)phenyl)amino)-2-oxoethyl)-1H-pyrazol-4-yl)-3-(o-tolyloxy)propanamide hydrochloride] | < 30
O=C(CCOc1ccccc1)Nc1cnn(CC(=O)N2CCCN(c3ccc(F)cn3)CC2)c1 [Compound 33] | < 30
Cc1ccccc1OCCC(=O)Nc1cnn(CC(=O)N(C)c2ccc(Oc3ccccc3)cc2)c1 [Compound 34] | < 30
Cc1cccc(OCCC(=O)Nc2cnn(CC(=O)N(C)c3ccc(Oc4ccccc4)cc3)c2)c1 [Compound 35] | < 30
Cc1ccc(OC2CCCN(C(=O)Cn3cc(NC(=O)CCOc4ccccc4C)cn3)C2)cc1 (stereo not shown) [Compound 36] | ≥ 50
Cc1ccc(OCCC(=O)Nc2cnn(CC(=O)N3CCCC(Oc4ccc(C)cc4)C3)c2)cc1 (stereo not shown) [Compound 37] | 30 to 50
Cc1ccc(OC2CCCN(C(=O)Cn3cc(NC(=O)CCOc4ccc(Cl)cc4)cn3)C2)cc1 (stereo not shown) [Compound 38] | 30 to 50
Cc1ccc(OC2CCCN(C(=O)Cn3cc(NC(=O)CCOc4ccccc4Cl)cn3)C2)cc1 (stereo not shown) [Compound 39] | ≥ 50
COc1ccccc1OCCC(=O)Nc1cnn(CC(=O)N2CCCC(Oc3ccc(C)cc3)C2)c1 (stereo not shown) [Compound 40] | 30 to 50
COc1ccc(OCCC(=O)Nc2cnn(CC(=O)N3CCCC(Oc4ccc(C)cc4)C3)c2)cc1 (stereo not shown) [Compound 41, 3-(4-methoxyphenoxy)-N-(1-(2-oxo-2-(3-(p-tolyloxy)piperidin-1-yl)ethyl)-1H-pyrazol-4-yl)propanamide hydrochloride] | < 30
CN(C(=O)Cn1cc(NC(=O)CCOc2ccccc2)cn1)c1ccc(Oc2ccc(C(F)(F)F)cc2)cc1 [Compound 42, N-(1-(2-(methyl(4-(4-(trifluoromethyl)phenoxy)phenyl)amino)-2-oxoethyl)-1H-pyrazol-4-yl)-3-phenoxypropanamide hydrochloride] | < 30
Cc1cccc(OCCC(=O)Nc2cnn(CC(=O)N(C)c3ccccc3Oc3ccccc3)c2)c1 [Compound 43] | < 30
Cc1ccccc1OCCC(=O)Nc1cnn(CC(=O)N(C)c2ccccc2Oc2ccccc2)c1 [Compound 44] | < 30
Cc1ccc(C2CN(C(=O)Cn3cc(NC(=O)CCOc4ccccc4)cn3)CCN2C)cc1 (stereo not shown) [Compound 45, N-(1-(2-(4-methyl-3-(p-tolyl)piperazin-1-yl)-2-oxoethyl)-1H-pyrazol-4-yl)-3-phenoxypropanamide] | < 30
COc1ccc(OCCC(=O)Nc2cnn(CC(=O)N3CCCCC(Oc4ccccc4)C3)c2)cc1 (stereo not shown) [Compound 47] | < 30

SMILES | activation at 10 µM [%]
Cc1ccc(OCCC(=O)Nc2cnn(CC(=O)N3CCCCC(Oc4ccccc4)C3)c2)cc1 (stereo not shown) [Compound 48] | < 30
Cc1ccccc1OCCC(=O)Nc1cnn(CC(=O)N2CCCCC(Oc3ccccc3)C2)c1 (stereo not shown) [Compound 49] | < 30
O=C(CCOc1ccc(Cl)cc1)Nc1cnn(CC(=O)N2CCCCC(Oc3ccccc3)C2)c1 (stereo not shown) [Compound 50] | < 30
COc1ccccc1OCCC(=O)Nc1cnn(CC(=O)N2CCCCC(Oc3ccccc3)C2)c1 (stereo not shown) [Compound 51] | < 30
O=C(CCOc1ccccc1)Nc1cnn(CC(=O)N2CCCN(Cc3ccncc3)CC2)c1 [Compound 52, N-(1-(2-oxo-2-(4-(pyridin-4-ylmethyl)-1,4-diazepan-1-yl)ethyl)-1H-pyrazol-4-yl)-3-phenoxypropanamide] | < 30
Cc1ccccc1OCCC(=O)Nc1cnn(CC(=O)N(C)c2ccc(Oc3ccc(C(F)(F)F)cc3)cc2)c1 [Compound 53] | < 30
CN(C(=O)Cn1cc(NC(=O)CCOc2ccccc2)cn1)c1ccc(Oc2ccc(C(F)(F)F)cc2)c(F)c1 [Compound 54] | < 30
Cc1ccc(Oc2c(F)cc(N(C)C(=O)Cn3cc(NC(=O)CCOc4ccccc4)cn3)cc2F)cc1 [Compound 55] | < 30
Cc1ccc(Oc2ccccc2N(C)C(=O)Cn2cc(NC(=O)CCOc3ccccc3)cn2)cc1 [Compound 57] | < 30
Cc1ccc(C(F)(F)c2ccc(N(C)C(=O)Cn3cc(NC(=O)CCOc4ccccc4)cn3)cc2)cc1 [Compound 58] | < 30
Cc1ccc(C2=CC(C)(C)Oc3cc(N(C)C(=O)Cn4cc(NC(=O)CCOc5ccccc5)cn4)ccc32)cc1 [Compound 59, N-(1-(2-((2,2-dimethyl-4-(p-tolyl)-2H-chromen-7-yl)(methyl)amino)-2-oxoethyl)-1H-pyrazol-4-yl)-3-phenoxypropanamide] | < 30
Cc1ccc(OCCN(C)C(=O)Cn2cc(NC(=O)C3COc4ccccc4C3)cn2)cc1 (stereo not shown) [Compound 60] | < 30
Cc1ccc(OCCN(C)C(=O)Cn2cc(NC(=O)C3CCCN(c4ccccc4)C3)cn2)cc1 (stereo not shown) [Compound 61] | < 30
COc1ccc2c(c1)CC(C(=O)Nc1cnn(CC(=O)N(C)CCOc3ccc(C)cc3)c1)CO2 (stereo not shown) [Compound 63] | < 30
Cc1ccc(OCCN(C)C(=O)Cn2cc(NC(=O)C3CCN(c4ccccc4)C3)cn2)cc1 (stereo not shown) [Compound 64] | < 30
Cc1ccc(OC2COCCN(C(=O)Cn3cc(NC(=O)CCOc4ccccc4)cn3)C2)cc1 (stereo not shown) [Compound 65] | 30 to 50
Cc1ccc(OCCN(C)C(=O)Cn2cc(NC(=O)C3CNc4ccccc4C3)cn2)cc1 (stereo not shown) [Compound 66] | < 30
Cc1ccc(OCCN(C)C(=O)Cn2cc(NC(=O)C3COc4ccccc43)cn2)cc1 (stereo not shown) [Compound 67] | < 30
